As a reminder, the IC50 is the point on the concentration scale where inhibition reaches its midpoint.

Results on 25 compounds are retold here after ChEMBL document CHEMBL2440073, “Antimalarial activity of compounds comprising a primary benzene sulfonamide fragment” (Bioorg Med Chem Lett, 2013).

SMILES strings stand for the structures.

Data set [1] concerns Plasmodium falciparum. The data set is described as follows: Antimalarial activity against ring stage of chloroquine-resistant Plasmodium falciparum Dd2 infected in erythrocytes assessed as [3H]-hypoxanthine incorporation after 48 hrs by liquid scintillation counting analysis. In kind it is functional, organism-based.
The subject of data set [2] is Plasmodium falciparum. Put plainly: Antimalarial activity against ring stage of chloroquine-sensitive Plasmodium falciparum 3D7 infected in erythrocytes assessed as [3H]-hypoxanthine incorporation after 48 hrs by liquid scintillation counting analysis. Type of data set: functional, organism-based.
A further data set concerns NFF. Put plainly: Cytotoxicity against human NFF cells after 3 days by SRB assay. In kind it is cell-based. As to conditions: 72 h.
A short description of data set [3]: Selectivity index, ratio of IC50 for human NFF cells to IC50 for Plasmodium falciparum. Type of data set: toxicity, cell-based. As to conditions: NFF cells (versus Plasmodium falciparum), read-out: Ratio IC50.

As for `CC(=O)OC[C@H]1O[C@@H](S(=O)(=O)Cc2cn(-c3ccccc3)nn2)[C@H](OC(C)=O)[C@@H](OC(C)=O)[C@@H]1OC(C)=O`, the IC50 with Plasmodium falciparum [1] and in the data set on Plasmodium falciparum [2] was above 50 µM in each case.
For the compound `CC(=O)OC[C@H]1O[C@@H](OCc2nnn(-c3ccccc3)c2I)[C@H](OC(C)=O)[C@@H](OC(C)=O)[C@@H]1OC(C)=O`, the IC50 in the data set on Plasmodium falciparum [1] came out at 9.4 µM; in the data set with Plasmodium falciparum [2] it was 10.6 µM.
As to `CC(=O)OC[C@H]1O[C@@H](SCc2cn(-c3ccccc3)nn2)[C@H](OC(C)=O)[C@@H](OC(C)=O)[C@@H]1OC(C)=O`, the IC50 with Plasmodium falciparum [1] and in the data set with Plasmodium falciparum [2] was above 50 µM in each case.
For `OC[C@H]1O[C@@H](SCc2cn(-c3ccccc3)nn2)[C@H](O)[C@@H](O)[C@@H]1O`, the IC50 in the data set on Plasmodium falciparum [1] and with Plasmodium falciparum [2] was above 50 µM throughout.
In the case of `NS(=O)(=O)c1ccc(-n2cc(CS[C@@H]3O[C@H](CO)[C@@H](O)[C@H](O)[C@H]3O)nn2)cc1`, the IC50 with Plasmodium falciparum [1] and in the data set on Plasmodium falciparum [2] was above 50 µM throughout.
On to `CC(=O)OC[C@H]1O[C@@H](S(=O)(=O)Cc2cn(-c3ccc(S(N)(=O)=O)cc3)nn2)[C@H](OC(C)=O)[C@@H](OC(C)=O)[C@@H]1OC(C)=O`, for which the IC50 with Plasmodium falciparum [1] and in the data set on Plasmodium falciparum [2] was above 50 µM in each case.
`NS(=O)(=O)c1ccc(-n2nnc(CS[C@@H]3O[C@H](CO)[C@@H](O)[C@H](O)[C@H]3O)c2I)cc1`: the IC50 was above 100 µM in the data set on NFF, 1.9 µM with Plasmodium falciparum [1] and 1 µM with Plasmodium falciparum [2]. The selectivity ratio in data set [3] is at least 40.
With `CC(=O)OC[C@H]1O[C@@H](OCc2nnn(-c3ccc(S(N)(=O)=O)cc3)c2I)[C@H](OC(C)=O)[C@@H](OC(C)=O)[C@@H]1OC(C)=O`, the IC50 is above 100 µM with NFF, 2.6 µM in the data set on Plasmodium falciparum [1] and 2.8 µM with Plasmodium falciparum [2].
With `CC(=O)OC[C@H]1O[C@@H](OCc2cn(-c3ccc(S(N)(=O)=O)cc3)nn2)[C@H](OC(C)=O)[C@@H](OC(C)=O)[C@@H]1OC(C)=O`, the results for the IC50 in the data set on Plasmodium falciparum [1] and in the data set with Plasmodium falciparum [2] were 11.7 µM and 9.7 µM, respectively.
Turning to `CC(=O)OC[C@H]1O[C@@H](S(=O)(=O)Cc2nnn(-c3ccc(S(N)(=O)=O)cc3)c2I)[C@H](OC(C)=O)[C@@H](OC(C)=O)[C@@H]1O[C@H]1O[C@H](COC(C)=O)[C@@H](OC(C)=O)[C@H](OC(C)=O)[C@H]1OC(C)=O`, the IC50 was above 100 µM in the data set on NFF, 2.4 µM in the data set with Plasmodium falciparum [1] and 2.3 µM in the data set with Plasmodium falciparum [2].
For `NS(=O)(=O)c1ccc(-n2nnc(CS(=O)(=O)[C@@H]3O[C@H](CO)[C@@H](O)[C@H](O)[C@H]3O)c2I)cc1`, the IC50 in the data set with Plasmodium falciparum [1] is above 50 µM; in the data set with Plasmodium falciparum [2] it was 28.6 µM.
As to `CC(=O)OC[C@H]1O[C@@H](S(=O)(=O)Cc2cn(-c3ccc(S(N)(=O)=O)cc3)nn2)[C@H](OC(C)=O)[C@@H](OC(C)=O)[C@@H]1O[C@H]1O[C@H](COC(C)=O)[C@@H](OC(C)=O)[C@H](OC(C)=O)[C@H]1OC(C)=O`, the IC50 in the data set with Plasmodium falciparum [1] came out at 14.7 µM; with Plasmodium falciparum [2] it was 20.7 µM.
Consider `NS(=O)(=O)c1ccc(-n2cc(CS(=O)(=O)[C@@H]3O[C@H](CO)[C@@H](O)[C@H](O)[C@H]3O)nn2)cc1`, for which the IC50 with Plasmodium falciparum [1] and in the data set on Plasmodium falciparum [2] was above 50 µM each time.
In the case of `CC(=O)OC[C@H]1O[C@@H](S(=O)(=O)Cc2nnn(-c3ccccc3)c2I)[C@H](OC(C)=O)[C@@H](OC(C)=O)[C@@H]1OC(C)=O`, the results for the IC50 in the data set on Plasmodium falciparum [1] and in the data set on Plasmodium falciparum [2] were 3.4 µM and 4.7 µM, respectively.
Consider `CC(=O)OC[C@H]1O[C@@H](SCc2nnn(-c3ccc(S(N)(=O)=O)cc3)c2I)[C@H](OC(C)=O)[C@@H](OC(C)=O)[C@H]1OC(C)=O`, for which the IC50 in the data set on NFF is above 100 µM; in the data set on Plasmodium falciparum [1] it was 4.1 µM; in the data set on Plasmodium falciparum [2], 1.4 µM.
`CC(=O)OC[C@H]1O[C@@H](SCc2cn(-c3ccc(S(N)(=O)=O)cc3)nn2)[C@H](OC(C)=O)[C@@H](OC(C)=O)[C@@H]1OC(C)=O`: the concentration for half-maximal inhibition (IC50) with Plasmodium falciparum [1] is above 25 µM; in the data set with Plasmodium falciparum [2], 31 µM.
The like results for `CC(=O)OC[C@H]1O[C@@H](OCc2cn(-c3ccccc3)nn2)[C@H](OC(C)=O)[C@@H](OC(C)=O)[C@@H]1OC(C)=O` were, in that order, above 50 µM and above 50 µM.
On the same counts, the results for `O=S(=O)(Cc1nnn(-c2ccccc2)c1I)[C@@H]1O[C@H](CO)[C@@H](O)[C@H](O)[C@H]1O` are 3.4 µM and 3.8 µM.
For the compound `O=S(=O)(Cc1cn(-c2ccccc2)nn1)[C@@H]1O[C@H](CO)[C@@H](O)[C@H](O)[C@H]1O`, the IC50 in the data set with Plasmodium falciparum [1] and in the data set on Plasmodium falciparum [2] was above 50 µM each time.
`OC[C@H]1O[C@@H](SCc2nnn(-c3ccccc3)c2I)[C@H](O)[C@@H](O)[C@@H]1O`: the IC50 in the data set with Plasmodium falciparum [1] stood at 4.4 µM; in the data set on Plasmodium falciparum [2], 4.9 µM.
`CCN(CC)CCCC(C)Nc1ccnc2cc(Cl)ccc12` (stereo not drawn) [CHLOROQUINE] had an IC50 in the data set on NFF above 1000 µM.
In the case of `CC(=O)OC[C@H]1O[C@@H](SCc2nnn(-c3ccc(S(N)(=O)=O)cc3)c2I)[C@H](OC(C)=O)[C@@H](OC(C)=O)[C@@H]1OC(C)=O`, the figures for the IC50 in the data set with NFF, in the data set with Plasmodium falciparum [1] and with Plasmodium falciparum [2] were 51.1 µM, 1.3 µM and 0.9 µM, respectively. Moreover, the selectivity ratio in data set [3] is at least 40.
With `CC(=O)OC[C@H]1O[C@@H](SCc2nnn(-c3ccccc3)c2I)[C@H](OC(C)=O)[C@@H](OC(C)=O)[C@@H]1OC(C)=O`, the values for the IC50 in the data set on Plasmodium falciparum [1] and with Plasmodium falciparum [2] were 4.8 µM and 4.6 µM, respectively.
As to `COC(=O)[C@H]1O[C@@H](SCc2nnn(-c3ccc(S(N)(=O)=O)cc3)c2I)[C@H](OC(C)=O)[C@@H](OC(C)=O)[C@@H]1OC(C)=O`, the IC50 is above 100 µM in the data set on NFF, 6 µM in the data set on Plasmodium falciparum [1] and 2.1 µM with Plasmodium falciparum [2].
The like results for `CC(=O)OC[C@H]1O[C@@H](S(=O)(=O)Cc2nnn(-c3ccc(S(N)(=O)=O)cc3)c2I)[C@H](OC(C)=O)[C@@H](OC(C)=O)[C@@H]1OC(C)=O` were, in that order, above 100 µM, 7.8 µM and 5.3 µM.
